Reference: ChEMBL document CHEMBL5550167, “Emerging trends in small molecule inhibitors targeting aldosterone synthase: A new paradigm in cardiovascular disease treatment” (Eur J Med Chem, 2024)

Tests used:
CYP11B1 = target: T1, CYP11B1 (Homo sapiens, UniProt P15538); assay: (§1) Inhibition of CYP11B1 (unknown origin); type: ADME
T1 sequence (P15538 whole entry): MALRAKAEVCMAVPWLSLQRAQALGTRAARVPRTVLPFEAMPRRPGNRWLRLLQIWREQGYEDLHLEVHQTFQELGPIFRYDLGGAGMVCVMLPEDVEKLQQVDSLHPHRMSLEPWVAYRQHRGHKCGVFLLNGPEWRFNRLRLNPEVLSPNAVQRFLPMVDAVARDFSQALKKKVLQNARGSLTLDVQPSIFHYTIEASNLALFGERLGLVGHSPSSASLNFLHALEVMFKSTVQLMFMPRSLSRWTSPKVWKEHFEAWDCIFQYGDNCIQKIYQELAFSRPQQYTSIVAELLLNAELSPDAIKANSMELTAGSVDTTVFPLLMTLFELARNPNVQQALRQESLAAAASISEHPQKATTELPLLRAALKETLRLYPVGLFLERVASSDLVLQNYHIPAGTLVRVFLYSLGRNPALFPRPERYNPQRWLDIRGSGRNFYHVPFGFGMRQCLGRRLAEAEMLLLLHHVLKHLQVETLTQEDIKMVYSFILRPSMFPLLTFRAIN

[1] = Metabolic stability in human liver microsomes assessed as half life measured upto 60 mins by LC/MS-MS analysis; type: ADME, Microsome
[2] = target: T2, Cytochrome P450 11B2, mitochondrial (Homo sapiens, UniProt P19099); assay: Inhibition of CYP11B2 (unknown origin); type: ADME
T2 sequence (P19099 whole entry): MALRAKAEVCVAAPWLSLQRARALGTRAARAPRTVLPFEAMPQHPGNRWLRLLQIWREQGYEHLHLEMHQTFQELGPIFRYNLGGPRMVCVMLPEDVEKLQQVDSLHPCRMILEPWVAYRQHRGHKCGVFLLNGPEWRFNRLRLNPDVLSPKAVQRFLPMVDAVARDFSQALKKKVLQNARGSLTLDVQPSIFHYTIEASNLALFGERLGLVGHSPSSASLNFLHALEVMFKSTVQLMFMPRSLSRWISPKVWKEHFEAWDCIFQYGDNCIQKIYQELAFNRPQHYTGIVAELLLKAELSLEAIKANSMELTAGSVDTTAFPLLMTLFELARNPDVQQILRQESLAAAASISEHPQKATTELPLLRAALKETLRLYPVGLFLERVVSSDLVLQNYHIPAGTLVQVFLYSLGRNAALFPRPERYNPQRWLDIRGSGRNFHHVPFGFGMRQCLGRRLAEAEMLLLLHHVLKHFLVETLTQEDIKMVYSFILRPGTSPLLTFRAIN

[3] = target: T3, Cytochrome P450 11B1, mitochondrial (Homo sapiens, UniProt P15538); assay: as §1; type: ADME
T3 sequence (P15538 whole entry): T1 sequence (P15538 whole entry)

[4] = target: T2, Cytochrome P450 11B2, mitochondrial; assay: Inhibition of human CYP11B2 stably expressed in G-402 cells; type: ADME, cell-based
[5] = target: T2, Cytochrome P450 11B2, mitochondrial; assay: Inhibition of human CYP11B2 expressed in human NCI-H295 cells incubated for 48 hrs by radioimmuno assay; type: ADME, cell-based

Structure (SMILES) | IC50 [2] | also measured
COc1cc2c(cc1-c1cccnc1)CCC(=O)N2C |  | IC50 (CYP11B1): 1.1 µM
Cc1nnc2n1-c1ccc(-c3cncc([C@](C)(O)C(F)(F)F)c3)cc1CC2 | 0.064 µM | half-life [1]: 2 h
Cc1c(-c2cccnc2)[nH]c2ccccc12 |  | IC50 [3]: 0.081 µM
Cn1c(-c2cccnc2)c(C#N)c2ccc(Cl)cc21 |  | IC50 [3]: 0.107 µM
Cn1cc(C(=O)N2CC(Oc3cncc(N4C(=O)c5ccc(Cl)cc5C4(C)C)c3)C2)cn1 |  | IC50 [4]: 0.0005 µM
COc1ccc2c(c1)CC(C)C(c1cncc3ccccc13)=C2 (stereo unspecified) |  | IC50 [5]: 0.0005 µM
Cn1nccc1-c1cncc(N2CCc3cc(Cl)ccc3C2=O)c1Cl |  | IC50 [4]: 0.0062 µM
Cc1c(F)cncc1C1COc2c(cccc2C(N)=O)O1 (stereo unspecified) |  | IC50 (CYP11B1): 2.6 µM
CC1(c2ccccc2)CCc2cncc(-c3ccc(C(F)(F)F)cc3F)c21 (stereo unspecified) | 0.033 µM | IC50 [3]: 0.738 µM
N#Cc1cccc2c1OCC(c1cncc(C(O)C3CCOCC3)c1)O2 (stereo unspecified) | < 0.01 µM | 
CC(C)CCC1(c2ccccc2Cl)C(=O)N(Cc2ccc(F)cc2)Cc2cncn21 (stereo unspecified) | 0.004 µM | 
N#Cc1ccc(-c2cncc3c2CCCC3)cc1 | 0.04 µM | 
CN(C)C(=O)CC1CCCc2c(-c3ccc(C(F)(F)F)cc3F)cncc21 (stereo unspecified) | 0.032 µM | 
N#Cc1cccc2c1OCC(c1cncc(CN3CCOC3=O)c1)O2 (stereo unspecified) | < 0.01 µM | 
N#Cc1cccc2c1OCC(c1cncc(CN3CCCCS3(=O)=O)c1)O2 (stereo unspecified) | < 0.01 µM | 
CCn1cc(C(=O)N2CC3(C2)CN(c2cncc(N4C(=O)c5ccc(Cl)cc5C4(C)C)c2)C3)cn1 |  | IC50 [4]: 0.00023 µM
CCCC1(c2ccc(C#N)cc2OC)C(=O)N(Cc2ccccc2)Cc2cncn21 (stereo unspecified) | 0.004 µM | 
CNC(=O)Cn1cc(NC(=O)CN2CCN(c3cncc(-c4ccc(Cl)cc4)c3)CC2)cn1 | 0.003 µM | 
CC1(C)C(=O)Nc2cccc(Cl)c2C1n1cncc1CO (stereo unspecified) | 0.007 µM | 
CS(=O)(=O)COc1cncc(C2COc3c(C#N)cccc3O2)c1 (stereo unspecified) | < 0.01 µM | 
CC1(C)CN(Cc2ccccc2)c2ccccc2C1N1C=NCC1CO (stereo unspecified) | 0.006 µM | 
O=C(CC1CCc2c(-c3ccc(C(F)(F)F)cc3F)cncc21)N1CCCCC1 (stereo unspecified) | 0.002 µM | IC50 [3]: 0.01 µM
CC(C)NC(=O)CN1CCN(c2cncc(-c3ccc4c(c3)CCO4)n2)C1 | 0.0022 µM | 
